Data as given in patent US7785639B2, “Composition for treating cancer cells and preparation method for the same” (Kaohsiung Medical University, priority 2005, dated 2010).
≈ marks a conversion by molar mass, not a printed value.

What was measured:
[1] = tested on: MCF-10A
[2] = tested on: MDA-MB-231; experiment: MTT cytotoxic testing, MDA-MB-231; assay type: cell-based; conditions: average ± standard deviation (n = 2); for IC50: MDA-MB-231, human breast cancer cell line; for IC50 MDA-MB-231: human breast cancer cell line
[3] = tested on: Hep 3B; experiment: MTT cytotoxic testing, Hep 3B; assay type: cell-based; conditions: human liver cancer cell line, average ± standard deviation (n = 2); for IC50: Hep3B
[4] = tested on: MCF-7; experiment: MTT cytotoxic testing, MCF-7; assay type: cell-based; conditions: average ± standard deviation (n = 2); for IC50: MCF7, human breast cancer cell line; for IC50 MCF-7: human breast cancer cell line
[5] = tested on: A549; experiment: MTT cytotoxic testing, A549; assay type: cell-based; conditions: average ± standard deviation (n = 2); for IC50: A549, human lung cancer cell line; for IC50 A549: human lung cancer cell line
[6] = tested on: MCF-10A; experiment: cells; conditions: Homo sapiens, read-out: IC50 MCF-10A
[7] = tested on: five human cancer cell lines
[8] = tested on: Hep G2; experiment: MTT cytotoxic testing, Hep G2; assay type: cell-based; conditions: average ± standard deviation (n = 2); for IC50: HepG2, human liver cancer cell line; for IC50 Hep G2: human liver cancer cell line

Compound | cytotoxicity to normal human breast epidermal cells [1] | IC50 [2] | IC50 [3] | IC50 [4] | IC50 [5] | IC50 [6] | cytotoxic activities on cancer cells [7] | IC50 [8] | IC50 MDA-MB-231 [2] | IC50 Hep 3B [3] | IC50 MCF-7 [4] | IC50 A549 [5] | IC50 Hep G2 [8]
O=C1C=CC(O)(c2cc(=O)c3c(O)cc(O)cc3o2)C=C1 [Compound A, Protoapigenone] | weak cytotoxicity | 0.27 ± 0.02 µg/mL (≈ 0.943 µM) | 0.23 ± 0.01 µg/mL (≈ 0.804 µM) | 0.78 ± 0.02 µg/mL (≈ 2.72 µM) | 3.88 ± 0.02 µg/mL (≈ 13.6 µM) | 7.9 ± 1.3 µg/mL (≈ 27.6 µM) | good cytotoxic activities | 1.6 ± 0.33 µg/mL (≈ 5.59 µM) | – | – | – | – | –
COC1CC(=O)C=CC1(O)c1cc(=O)c2c(O)cc(O)cc2o1 (stereo not drawn) [Compound B, 5′,6′-Dihydro-6′-methoxy-protoapigenone] | – | – | – | – | – | – | good cytotoxic activities | – | 1.30 ± 0.10 µg/mL (≈ 4.08 µM) | 1.74 ± 0.08 µg/mL (≈ 5.47 µM) | 5.92 ± 0.29 µg/mL (≈ 18.6 µM) | 13.30 ± 0.23 µg/mL (≈ 41.8 µM) | 5.88 ± 0.47 µg/mL (≈ 18.5 µM)
O=c1cc(C2(O)C=CC(O)C=C2)oc2cc(O)cc(O)c12 (stereo not drawn) [Compound C, Protoapigenin] | – | – | – | – | – | – | good cytotoxic activities | – | — (Without the cytotoxical activity in the concentration of 20 μg/ml) | 20.00 ± 0.58 µg/mL (≈ 69.4 µM) | — (Without the cytotoxical activity in the concentration of 20 μg/ml) | 18.84 ± 0.60 µg/mL (≈ 65.4 µM) | 1.60 ± 0.33 µg/mL (≈ 5.55 µM)
COC1(OC)CCC(O)(c2cc(=O)c3c(O)cc(O)cc3o2)CC1 [Compound D, 5,7-dihydroxy-2-(1-hydroxy-4,4-dimethoxy-cyclohexyl)-chromen-4-one] | – | > 20 µg/mL | > 20 µg/mL | > 20 µg/mL | > 20 µg/mL | – | – | > 20 µg/mL | – | – | – | – | –
COc1cccc2c1C(=O)c1c(O)c3c(c(O)c1C2=O)C[C@@](O)(C(=O)CO)C[C@@H]3O[C@H]1C[C@H](N)[C@H](O)[C@H](C)O1 [Compound E, Doxorubicin, reference compound] | – | 0.31 ± 0.02 µg/mL (≈ 0.57 µM) | 0.26 ± 0.06 µg/mL (≈ 0.478 µM) | 0.32 ± 0.08 µg/mL (≈ 0.589 µM) | 0.36 ± 0.04 µg/mL (≈ 0.662 µM) | – | – | 0.15 µg/mL (≈ 0.276 µM) | – | – | – | – | –
